# Source: publication PMC3700763, “First human dose-escalation study with remogliflozin etabonate, a selective inhibitor of the sodium-glucose transporter 2 (SGLT2), in healthy subjects and in subjects with type 2 diabetes mellitus” (BMC Pharmacology & Toxicology, 2013)
# Where two headings read alike, the source gives them in different places.
# Test: Plasma pharmacokinetics, healthy subjects
# Format: in vivo, human
# Settings: human; for Cmax: read-out: Cmax; for AUC(0-inf): read-out: AUC(0–∞)
# Method: Ten healthy subjects were evaluated in 5 study sessions, each separated by approximately 2 weeks. At each study session, subjects received either an oral dose of remogliflozin etabonate or placebo after an overnight fast. Remogliflozin etabonate doses were 20 mg, 50 mg, 150 mg, 500 mg and 1000 mg. Over the course of participation in the study, each subject received 4 of the 5 active remogliflozin etabonate doses and 1 dose of placebo (4:1 active to placebo ratio per treatment period). The available safety and PK results from each dosing period were evaluated before proceeding to the next dose level. On each dosing day, a series of 2.0 mL blood samples were collected at pre-dose and 10, 20, 30 and 45 min, and 1, 1.25, 1.5, 2, 2.5, 3, 4, 6, 8, 12, 16, and 24 h post-dose for the determination of remogliflozin etabonate, remogliflozin and GSK279782 in plasma by using high-performance liquid chromatography with tandem mass spectrometry (MS/MS) as described. Non-compartmental PK analysis of plasma concentration–time data was performed using WinNonlin Version 4.1 (Pharsight Corporation, Mountainview, CA, USA). The Cmax and Tmax were obtained directly from the data. Areas under the plasma concentration–time curves from time zero to the last quantifiable time point (AUC[0–last]) and extrapolated to infinity (AUC[0–∞]) were calculated using the log-linear trapezoidal method. The terminal plasma elimination rate-constant (λz) was estimated from log-linear regression analysis of the terminal phase of the plasma concentration–time curve, and the T½ was calculated as T½ = ln2/λz. Ratios of AUC(0–∞) remogliflozin to AUC(0–last) remogliflozin etabonate were calculated including molecular weight corrections. Safety and pharmacodynamic data were summarized using descriptive statistics. This was a small exploratory study and no formal hypothesis-testing was conducted. Dose proportionality with respect to Cmax, and AUC was assessed using the power model y = α dose^β, where y = Cmax or AUC, and α denotes a random subject effect. The exponent β in the power model will be estimated by regressing the loge-transformed PK parameters on loge dose, i.e. ln(PK parameter) = ln(α) + β * ln(dose). Dose proportionality implied that β = 1 and was assessed by estimating β and its corresponding 90% confidence interval. The power model was fitted by restricted maximum likelihood using SAS Proc Mixed.
# [1] = plasma prodrug, healthy subjects, 50 mg oral dose, geometric mean (CV%)
# [2] = plasma prodrug, healthy subjects, 150 mg oral dose, geometric mean (CV%)
# [3] = plasma prodrug, healthy subjects, 500 mg oral dose, geometric mean (CV%)
# [4] = plasma prodrug, healthy subjects, 1000 mg oral dose, geometric mean (CV%)
compound,measurement,setting,value
"CCOC(=O)OC[C@H]1O[C@@H](Oc2nn(C(C)C)c(C)c2Cc2ccc(OC(C)C)cc2)[C@H](O)[C@@H](O)[C@@H]1O [Remogliflozin etabonate, remogliflozin etabonate]",half-life,"plasma, oral, both populations, independent of dose (abstract), read-out: mean plasma T½",~25 min
same,Tmax,"plasma, oral, healthy subjects, 20-1000 mg, read-out: median Tmax estimates, range across doses",31.2 to 75 min
same,half-life,"plasma, oral, healthy subjects, 20-1000 mg, read-out: median T½ estimates, range across doses",15.6 to 42.6 min
same,half-life,"plasma, po, 50 mg, plasma prodrug, healthy subjects, 50 mg oral dose, geometric mean (CV%), n = 6, read-out: T½ (converted)",21.2 min
same,half-life,"plasma, po, 150 mg, plasma prodrug, healthy subjects, 150 mg oral dose, geometric mean (CV%), n = 6, read-out: T½ (converted)",15.4 min
same,half-life,"plasma, po, 500 mg, plasma prodrug, healthy subjects, 500 mg oral dose, geometric mean (CV% 27), n = 4, read-out: T½ (converted)",15.8 min
same,half-life,"plasma, po, 1000 mg, plasma prodrug, healthy subjects, 1000 mg oral dose, geometric mean (CV% 56), n = 7, read-out: T½ (converted)",42.4 min
same,AUC(0-t),"plasma prodrug, healthy subjects, 20 mg oral dose, geometric mean (CV%), n = 5",1.61 ng·h/mL
same,Cmax,"plasma prodrug, healthy subjects, 20 mg oral dose, geometric mean (CV%)",1.89 ng/mL
same,Tmax,"plasma prodrug, healthy subjects, 20 mg oral dose, median, read-out: Tmax",37.5 min
same,AUC(0-t),[1],3.56 ng·h/mL
same,AUC(0-inf),"plasma prodrug, healthy subjects, 50 mg oral dose, geometric mean (CV%), n = 6",3.7 ng·h/mL
same,Cmax,[1],4.98 ng/mL
same,Tmax,"plasma prodrug, healthy subjects, 50 mg oral dose, median, read-out: Tmax",37.5 min
same,AUC(0-t),[2],9.51 ng·h/mL
same,AUC(0-inf),"plasma prodrug, healthy subjects, 150 mg oral dose, geometric mean (CV%), n = 6",9.77 ng·h/mL
same,Cmax,[2],17.6 ng/mL
same,Tmax,"plasma prodrug, healthy subjects, 150 mg oral dose, median, read-out: Tmax",30.9 min
same,AUC(0-t),[3],35.4 ng·h/mL
same,AUC(0-inf),"plasma prodrug, healthy subjects, 500 mg oral dose, geometric mean (CV%), n = 4",36.8 ng·h/mL
same,Cmax,[3],41.6 ng/mL
same,Tmax,"plasma prodrug, healthy subjects, 500 mg oral dose, median, read-out: Tmax",75 min
same,AUC(0-t),[4],107 ng·h/mL
same,AUC(0-inf),"plasma prodrug, healthy subjects, 1000 mg oral dose, geometric mean (CV%), n = 7",126 ng·h/mL
same,Cmax,[4],144 ng/mL
same,Tmax,"plasma prodrug, healthy subjects, 1000 mg oral dose, median, read-out: Tmax",37.5 min
